Laboratory results from PMC5564600 (Oncotarget, 2017).

Columns and labels:
Test in all cases: biochemical
Assay type in all cases: binding
panel of 442 kinases [1] = biological target: T1, panel of 442 kinases (Homo sapiens, UniProt O94804); conditions: kinase LOK; for remaining activity at 1 µM: read-out: % of control at 1 µM
T1 construct: purchased Ambit Biosciences (scanMAXX KINOMEscan)

panel of 442 kinases [2] = biological target: T2, panel of 442 kinases (Homo sapiens, UniProt P49137); conditions: kinase MAPKAPK2; for remaining activity at 1 µM: read-out: % of control at 1 µM
T2 construct: purchased Ambit Biosciences (scanMAXX KINOMEscan)
T2 sequence (P49137 whole entry): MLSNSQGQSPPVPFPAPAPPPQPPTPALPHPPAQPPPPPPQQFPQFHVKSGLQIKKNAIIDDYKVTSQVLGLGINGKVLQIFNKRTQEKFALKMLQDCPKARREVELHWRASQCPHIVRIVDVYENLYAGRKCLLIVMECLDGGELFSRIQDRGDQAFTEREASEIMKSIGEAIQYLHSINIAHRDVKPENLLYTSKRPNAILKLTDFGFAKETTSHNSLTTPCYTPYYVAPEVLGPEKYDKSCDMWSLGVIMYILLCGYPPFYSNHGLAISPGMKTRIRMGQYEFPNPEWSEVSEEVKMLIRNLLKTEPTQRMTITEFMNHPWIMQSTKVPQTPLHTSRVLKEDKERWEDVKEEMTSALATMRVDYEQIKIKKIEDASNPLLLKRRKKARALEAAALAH

panel of 442 kinases [3] = biological target: T3, panel of 442 kinases (Homo sapiens, UniProt Q07002); conditions: kinase PCTK3; for remaining activity at 1 µM: read-out: % of control at 1 µM
T3 construct: purchased Ambit Biosciences (scanMAXX KINOMEscan)
T3 sequence (Q07002 whole entry): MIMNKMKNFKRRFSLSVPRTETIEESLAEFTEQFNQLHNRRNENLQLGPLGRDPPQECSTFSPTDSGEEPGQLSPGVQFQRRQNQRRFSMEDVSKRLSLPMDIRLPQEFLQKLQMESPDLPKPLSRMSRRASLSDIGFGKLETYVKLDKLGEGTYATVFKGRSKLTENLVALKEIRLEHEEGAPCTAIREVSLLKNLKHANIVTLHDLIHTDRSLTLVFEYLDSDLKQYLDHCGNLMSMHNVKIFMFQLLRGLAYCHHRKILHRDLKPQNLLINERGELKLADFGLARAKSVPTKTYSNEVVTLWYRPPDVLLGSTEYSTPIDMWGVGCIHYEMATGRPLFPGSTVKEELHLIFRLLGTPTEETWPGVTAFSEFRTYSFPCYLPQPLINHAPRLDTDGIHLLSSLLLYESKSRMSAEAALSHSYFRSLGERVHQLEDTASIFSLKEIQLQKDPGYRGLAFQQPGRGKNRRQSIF

panel of 442 kinases [4] = biological target: T4, panel of 442 kinases (Homo sapiens, UniProt Q9H2X6); conditions: kinase HIPK2; for remaining activity at 1 µM: read-out: % of control at 1 µM
T4 construct: purchased Ambit Biosciences (scanMAXX KINOMEscan)
T4 sequence (Q9H2X6 whole entry): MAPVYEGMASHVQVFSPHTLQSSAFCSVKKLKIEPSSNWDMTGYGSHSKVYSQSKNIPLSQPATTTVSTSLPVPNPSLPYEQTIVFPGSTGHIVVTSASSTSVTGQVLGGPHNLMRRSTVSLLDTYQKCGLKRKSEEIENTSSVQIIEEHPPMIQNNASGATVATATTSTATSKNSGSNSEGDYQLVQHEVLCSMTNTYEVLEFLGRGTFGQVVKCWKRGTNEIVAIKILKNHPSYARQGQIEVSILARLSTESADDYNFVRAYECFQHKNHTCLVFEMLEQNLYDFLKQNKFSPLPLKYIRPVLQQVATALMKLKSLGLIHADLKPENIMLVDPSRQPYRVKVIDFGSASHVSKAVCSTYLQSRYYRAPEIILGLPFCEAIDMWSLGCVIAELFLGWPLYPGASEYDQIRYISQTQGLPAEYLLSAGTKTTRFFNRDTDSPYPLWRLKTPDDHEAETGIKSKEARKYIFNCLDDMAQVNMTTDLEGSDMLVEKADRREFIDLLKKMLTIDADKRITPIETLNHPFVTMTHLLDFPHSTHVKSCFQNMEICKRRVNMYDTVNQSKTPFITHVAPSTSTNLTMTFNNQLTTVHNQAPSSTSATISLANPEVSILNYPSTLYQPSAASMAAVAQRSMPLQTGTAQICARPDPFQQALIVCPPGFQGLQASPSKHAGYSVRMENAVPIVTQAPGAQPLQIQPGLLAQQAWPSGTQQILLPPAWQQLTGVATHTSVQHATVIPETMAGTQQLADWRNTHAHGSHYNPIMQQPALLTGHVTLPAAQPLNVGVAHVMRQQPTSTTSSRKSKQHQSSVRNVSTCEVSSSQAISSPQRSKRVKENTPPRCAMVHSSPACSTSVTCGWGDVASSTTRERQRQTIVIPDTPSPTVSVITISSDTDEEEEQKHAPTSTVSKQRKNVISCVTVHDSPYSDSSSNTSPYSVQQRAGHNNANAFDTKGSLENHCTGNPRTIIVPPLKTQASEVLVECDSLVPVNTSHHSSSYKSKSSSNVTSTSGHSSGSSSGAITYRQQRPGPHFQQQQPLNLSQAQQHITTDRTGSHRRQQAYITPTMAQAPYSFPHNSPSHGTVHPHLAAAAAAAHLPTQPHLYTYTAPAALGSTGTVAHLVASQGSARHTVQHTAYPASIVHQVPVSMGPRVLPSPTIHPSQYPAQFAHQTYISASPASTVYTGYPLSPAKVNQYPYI

panel of 442 kinases [5] = biological target: T5, panel of 442 kinases (Homo sapiens, UniProt Q9HCP0); conditions: CSNK1G1; for remaining activity at 1 µM: read-out: % of control at 1 µM
T5 construct: purchased Ambit Biosciences (scanMAXX KINOMEscan)
T5 sequence (Q9HCP0 whole entry): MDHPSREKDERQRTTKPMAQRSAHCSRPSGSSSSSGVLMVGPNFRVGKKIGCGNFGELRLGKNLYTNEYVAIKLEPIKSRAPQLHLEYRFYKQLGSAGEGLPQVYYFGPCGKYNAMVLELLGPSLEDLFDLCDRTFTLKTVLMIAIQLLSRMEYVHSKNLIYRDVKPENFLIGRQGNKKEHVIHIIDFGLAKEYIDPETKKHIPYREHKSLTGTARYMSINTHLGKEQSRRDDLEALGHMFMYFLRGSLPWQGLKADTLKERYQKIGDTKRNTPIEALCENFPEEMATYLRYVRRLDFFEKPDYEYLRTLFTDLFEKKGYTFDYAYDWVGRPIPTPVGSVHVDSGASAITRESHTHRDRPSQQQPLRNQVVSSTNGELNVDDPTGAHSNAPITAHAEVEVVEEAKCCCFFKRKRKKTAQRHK

panel of 442 kinases [6] = biological target: T6, panel of 442 kinases (Homo sapiens, UniProt P54646); conditions: AMPK-alpha2; for remaining activity at 1 µM: read-out: % of control at 1 µM
T6 construct: purchased Ambit Biosciences (scanMAXX KINOMEscan)

panel of 442 kinases [7] = biological target: T7, panel of 442 kinases (Homo sapiens, UniProt P06239); conditions: kinase LCK; for remaining activity at 1 µM: read-out: % of control at 1 µM
T7 construct: purchased Ambit Biosciences (scanMAXX KINOMEscan)
T7 sequence (P06239 whole entry): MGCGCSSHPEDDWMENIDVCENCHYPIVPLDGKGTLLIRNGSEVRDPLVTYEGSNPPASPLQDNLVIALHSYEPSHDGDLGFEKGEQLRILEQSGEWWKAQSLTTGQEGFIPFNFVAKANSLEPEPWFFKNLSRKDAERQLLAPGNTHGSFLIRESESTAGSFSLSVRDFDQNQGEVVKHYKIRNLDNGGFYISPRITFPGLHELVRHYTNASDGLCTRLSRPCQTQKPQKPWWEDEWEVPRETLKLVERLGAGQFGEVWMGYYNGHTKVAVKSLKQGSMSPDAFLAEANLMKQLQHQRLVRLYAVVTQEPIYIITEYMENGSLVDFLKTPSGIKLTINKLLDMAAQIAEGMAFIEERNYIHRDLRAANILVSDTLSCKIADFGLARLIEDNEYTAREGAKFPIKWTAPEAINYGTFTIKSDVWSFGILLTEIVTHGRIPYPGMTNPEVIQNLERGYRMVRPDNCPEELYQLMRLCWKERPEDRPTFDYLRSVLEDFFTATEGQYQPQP

panel of 442 kinases [8] = biological target: T8, panel of 442 kinases (Homo sapiens, UniProt Q6PHR2); conditions: kinase ULK3; for remaining activity at 1 µM: read-out: ULK3 (% of control at 1 µM)
T8 construct: purchased Ambit Biosciences (scanMAXX KINOMEscan)
T8 sequence (Q6PHR2 1-472): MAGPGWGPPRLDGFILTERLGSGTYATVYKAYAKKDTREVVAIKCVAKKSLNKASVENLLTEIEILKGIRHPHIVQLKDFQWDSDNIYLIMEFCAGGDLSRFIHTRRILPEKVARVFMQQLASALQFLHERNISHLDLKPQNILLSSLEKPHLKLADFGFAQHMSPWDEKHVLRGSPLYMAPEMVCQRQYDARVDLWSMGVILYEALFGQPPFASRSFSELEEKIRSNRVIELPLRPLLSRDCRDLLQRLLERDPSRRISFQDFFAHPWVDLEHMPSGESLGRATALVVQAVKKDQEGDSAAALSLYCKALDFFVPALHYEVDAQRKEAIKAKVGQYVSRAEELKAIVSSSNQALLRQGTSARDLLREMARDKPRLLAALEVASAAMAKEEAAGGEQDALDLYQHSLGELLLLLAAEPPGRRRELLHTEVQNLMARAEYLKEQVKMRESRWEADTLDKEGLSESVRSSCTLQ

panel of 442 kinases [9] = biological target: T9, panel of 442 kinases (Homo sapiens, UniProt O00506); conditions: kinase YSK1; for remaining activity at 1 µM: read-out: YSK1 (% of control at 1 µM)
T9 construct: purchased Ambit Biosciences (scanMAXX KINOMEscan)
T9 sequence (O00506 whole entry): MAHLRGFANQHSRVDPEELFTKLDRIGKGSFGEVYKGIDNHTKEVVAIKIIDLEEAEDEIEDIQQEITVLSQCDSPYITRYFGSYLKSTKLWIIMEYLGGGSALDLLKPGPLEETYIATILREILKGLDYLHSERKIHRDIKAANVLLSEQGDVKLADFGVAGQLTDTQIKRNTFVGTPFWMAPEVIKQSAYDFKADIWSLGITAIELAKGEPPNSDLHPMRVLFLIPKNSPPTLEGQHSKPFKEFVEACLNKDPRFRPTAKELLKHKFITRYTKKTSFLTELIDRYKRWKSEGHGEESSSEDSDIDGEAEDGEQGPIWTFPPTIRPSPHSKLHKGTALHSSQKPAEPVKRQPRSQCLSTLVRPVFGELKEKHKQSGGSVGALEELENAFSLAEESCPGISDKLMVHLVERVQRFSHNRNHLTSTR

panel of 442 kinases [10] = biological target: T10, panel of 442 kinases (Homo sapiens, UniProt Q9BRS2); conditions: kinase RIOK1; for remaining activity at 1 µM: read-out: RIOK1 (% of control at 1 µM)
T10 construct: purchased Ambit Biosciences (scanMAXX KINOMEscan)
T10 sequence (Q9BRS2 1-568): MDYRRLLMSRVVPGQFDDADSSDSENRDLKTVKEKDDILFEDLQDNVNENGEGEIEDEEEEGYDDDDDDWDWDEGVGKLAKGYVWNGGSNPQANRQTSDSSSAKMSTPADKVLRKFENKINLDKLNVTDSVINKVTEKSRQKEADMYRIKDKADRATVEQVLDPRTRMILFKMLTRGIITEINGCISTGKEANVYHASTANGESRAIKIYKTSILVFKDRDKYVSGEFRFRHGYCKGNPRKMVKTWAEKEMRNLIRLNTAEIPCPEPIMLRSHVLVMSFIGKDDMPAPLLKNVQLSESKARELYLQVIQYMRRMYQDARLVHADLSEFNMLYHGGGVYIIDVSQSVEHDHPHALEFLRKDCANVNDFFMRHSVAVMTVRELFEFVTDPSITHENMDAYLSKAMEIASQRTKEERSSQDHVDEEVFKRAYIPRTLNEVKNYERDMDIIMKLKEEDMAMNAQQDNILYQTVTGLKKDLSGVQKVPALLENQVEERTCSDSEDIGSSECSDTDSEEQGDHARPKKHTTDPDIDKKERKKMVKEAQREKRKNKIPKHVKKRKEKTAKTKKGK

panel of 442 kinases [11] = biological target: T11, panel of 442 kinases (Homo sapiens, UniProt Q13237); conditions: kinase PRKG2; for remaining activity at 1 µM: read-out: PRKG2 (% of control at 1 µM)
T11 construct: purchased Ambit Biosciences (scanMAXX KINOMEscan)
T11 sequence (Q13237 1-762): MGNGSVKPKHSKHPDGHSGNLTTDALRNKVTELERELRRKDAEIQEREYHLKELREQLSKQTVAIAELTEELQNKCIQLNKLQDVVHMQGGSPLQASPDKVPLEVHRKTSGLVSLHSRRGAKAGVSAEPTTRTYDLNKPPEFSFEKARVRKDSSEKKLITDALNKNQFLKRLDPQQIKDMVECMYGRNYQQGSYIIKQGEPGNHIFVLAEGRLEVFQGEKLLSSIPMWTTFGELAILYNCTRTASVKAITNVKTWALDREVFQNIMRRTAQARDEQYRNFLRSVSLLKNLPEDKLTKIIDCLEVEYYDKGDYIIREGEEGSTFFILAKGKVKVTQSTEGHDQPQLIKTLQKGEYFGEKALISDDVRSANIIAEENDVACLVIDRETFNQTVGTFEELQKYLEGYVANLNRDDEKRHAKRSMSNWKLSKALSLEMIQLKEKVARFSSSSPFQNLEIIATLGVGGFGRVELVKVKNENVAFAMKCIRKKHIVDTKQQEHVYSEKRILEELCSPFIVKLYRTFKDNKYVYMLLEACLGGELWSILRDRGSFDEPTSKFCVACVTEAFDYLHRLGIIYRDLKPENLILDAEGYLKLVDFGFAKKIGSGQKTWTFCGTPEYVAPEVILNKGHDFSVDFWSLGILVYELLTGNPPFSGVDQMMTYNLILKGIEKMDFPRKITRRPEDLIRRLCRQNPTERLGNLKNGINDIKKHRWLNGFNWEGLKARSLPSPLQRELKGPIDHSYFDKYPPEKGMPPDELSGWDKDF

panel of 442 kinases [12] = biological target: T12, panel of 442 kinases (Homo sapiens, UniProt P08581); conditions: kinase MET; for remaining activity at 1 µM: read-out: % of control at 1 µM
T12 construct: purchased Ambit Biosciences (scanMAXX KINOMEscan)

panel of 442 kinases [13] = biological target: T13, panel of 442 kinases (Homo sapiens, UniProt Q96RR4); conditions: CAMKK2; for remaining activity at 1 µM: read-out: % of control at 1 µM
T13 construct: purchased Ambit Biosciences (scanMAXX KINOMEscan)
T13 sequence (Q96RR4 whole entry): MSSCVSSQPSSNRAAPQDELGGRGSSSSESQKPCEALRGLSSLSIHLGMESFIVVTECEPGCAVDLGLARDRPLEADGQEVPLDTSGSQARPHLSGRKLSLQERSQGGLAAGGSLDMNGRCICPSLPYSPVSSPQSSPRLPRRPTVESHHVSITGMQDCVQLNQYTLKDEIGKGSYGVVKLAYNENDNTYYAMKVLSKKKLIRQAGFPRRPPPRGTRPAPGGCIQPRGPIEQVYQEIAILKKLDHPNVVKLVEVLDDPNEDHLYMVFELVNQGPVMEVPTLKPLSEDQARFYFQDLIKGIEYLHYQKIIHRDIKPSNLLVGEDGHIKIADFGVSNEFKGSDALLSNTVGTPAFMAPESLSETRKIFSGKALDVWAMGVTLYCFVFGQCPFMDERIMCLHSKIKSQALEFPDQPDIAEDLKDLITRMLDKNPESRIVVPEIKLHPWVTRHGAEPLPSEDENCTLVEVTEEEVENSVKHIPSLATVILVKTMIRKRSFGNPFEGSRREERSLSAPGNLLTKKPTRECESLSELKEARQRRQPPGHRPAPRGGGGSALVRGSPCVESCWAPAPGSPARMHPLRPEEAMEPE

[14] = 10 µM, read-out: % of control at 10 µM

T1 sequence (O94804 whole entry): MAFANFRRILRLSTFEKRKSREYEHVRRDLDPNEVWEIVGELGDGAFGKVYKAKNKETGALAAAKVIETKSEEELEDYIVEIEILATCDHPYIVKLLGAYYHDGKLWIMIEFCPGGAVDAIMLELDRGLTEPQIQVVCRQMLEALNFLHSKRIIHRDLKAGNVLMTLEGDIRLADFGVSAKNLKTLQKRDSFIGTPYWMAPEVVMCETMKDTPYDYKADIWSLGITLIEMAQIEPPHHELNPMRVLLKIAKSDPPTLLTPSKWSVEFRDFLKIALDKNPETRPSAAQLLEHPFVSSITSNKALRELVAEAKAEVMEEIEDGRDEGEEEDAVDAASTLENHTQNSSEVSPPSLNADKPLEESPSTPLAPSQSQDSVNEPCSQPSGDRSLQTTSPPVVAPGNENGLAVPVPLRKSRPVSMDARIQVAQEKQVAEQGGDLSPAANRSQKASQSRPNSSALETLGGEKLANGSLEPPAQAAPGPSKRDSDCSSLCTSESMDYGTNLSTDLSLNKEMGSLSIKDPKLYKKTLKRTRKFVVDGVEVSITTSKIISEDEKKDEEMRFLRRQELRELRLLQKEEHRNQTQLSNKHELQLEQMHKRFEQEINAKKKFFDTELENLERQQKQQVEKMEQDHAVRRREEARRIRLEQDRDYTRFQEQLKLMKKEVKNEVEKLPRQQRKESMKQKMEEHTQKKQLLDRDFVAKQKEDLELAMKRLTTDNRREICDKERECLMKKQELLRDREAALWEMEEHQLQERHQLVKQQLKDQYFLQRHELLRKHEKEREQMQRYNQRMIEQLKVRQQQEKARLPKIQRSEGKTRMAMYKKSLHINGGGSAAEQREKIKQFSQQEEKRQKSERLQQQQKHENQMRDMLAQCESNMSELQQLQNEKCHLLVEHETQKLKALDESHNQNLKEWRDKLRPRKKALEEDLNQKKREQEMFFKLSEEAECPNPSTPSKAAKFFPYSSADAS

Row | Structure (SMILES) | remaining activity at 1 µM (panel of 442 kinases [1]) | remaining activity at 1 µM (panel of 442 kinases [2]) | remaining activity at 1 µM (panel of 442 kinases [3]) | remaining activity at 1 µM (panel of 442 kinases [4]) | remaining activity at 1 µM (panel of 442 kinases [5]) | remaining activity at 1 µM (panel of 442 kinases [6]) | remaining activity at 1 µM (panel of 442 kinases [7]) | remaining activity at 1 µM (panel of 442 kinases [8]) | remaining activity at 1 µM (panel of 442 kinases [9]) | remaining activity at 1 µM (panel of 442 kinases [10]) | remaining activity at 1 µM (panel of 442 kinases [11]) | remaining activity at 1 µM (panel of 442 kinases [12]) | remaining activity at 1 µM (panel of 442 kinases [13]) | further results
1 | Nc1cc(C(F)(F)F)c(-c2cc(N3CCOCC3)nc(N3CCOCC3)n2)cn1 [Buparlisib] | 92% | 100% | 100% | 100% | 95% | 100% | 100% | 100% | 100% | 89% | 93% | 100% | 100% | remaining activity at 10 µM (panel of 442 kinases [1]; [14]): 100%; remaining activity at 10 µM (panel of 442 kinases [2]; [14]): 100%; remaining activity at 10 µM (panel of 442 kinases [3]; [14]): 87%; remaining activity at 10 µM (panel of 442 kinases [4]; [14]): 100%; remaining activity at 10 µM (panel of 442 kinases [5]; [14]): 95%; remaining activity at 10 µM (panel of 442 kinases [6]; [14]): 100%; remaining activity at 10 µM (panel of 442 kinases [7]; [14]): 100%; remaining activity at 10 µM (panel of 442 kinases [8]; 10 µM, read-out: ULK3 (% of control at 10 µM)): 100%; remaining activity at 10 µM (panel of 442 kinases [9]; 10 µM, read-out: YSK1 (% of control at 10 µM)): 100%; remaining activity at 10 µM (panel of 442 kinases [10]; 10 µM, read-out: RIOK1 (% of control at 10 µM)): 81%; remaining activity at 10 µM (panel of 442 kinases [11]; 10 µM, read-out: PRKG2 (% of control at 10 µM)): 100%; remaining activity at 10 µM (panel of 442 kinases [12]; [14]): 100%; remaining activity at 10 µM (panel of 442 kinases [13]; [14]): 100%
2 | Cn1c(=O)n(-c2ccc(C(C)(C)C#N)cc2)c2c3cc(-c4cnc5ccccc5c4)ccc3ncc21 [Dactolisib, 2-methyl-2-[4-(3-methyl-2-oxo-8-quinolin-3-yl-2,3-dihydroimidazo[4,5-c]quinolin-1-yl)-phenyl] propionitrile] | 100% | 92% | 94% | 64% | 67% | 100% | 88% | 100% | 100% | 66% | 84% | – | 52% | –
3 | COc1ncc(-c2ccc3nccc(-c4ccnnc4)c3c2)cc1NS(=O)(=O)c1ccc(F)cc1F [Omipalisib] | 100% | 100% | 100% | 91% | 100% | 99% | 100% | 100% | 91% | 100% | 96% | 99% | 71% | –
4 | FC(F)c1nc2ccccc2n1-c1nc(N2CCOCC2)nc(N2CCOCC2)n1 [ZSTK474, 2-(difluoromethyl)-1-[4,6-di(4-morpholinyl)-1,3,5-triazin-2-yl]-1H-benzimidazole] | 100% | 99% | 100% | 86% | 81% | 100% | 100% | 97% | 83% | 84% | 95% | 100% | 100% | –
